Results published in patent publication US6699877B2 (Gruenenthal GmbH, priority 2000, dated 2004).

How the values were obtained:
[1] = system: formalin-induced nociception; experiment: Formalin test, rat (second/late phase); type: in vivo; settings: 21.5 mg/kg, late phase
Method: Experiments to determine the antinociceptive activity of the compounds according to the invention of Formula I were carried out in the formalin test on male rats (Sprague-Dawley, 150-170 g).
In the formalin test, the first (early) phase (0-15 min after formalin injection) was distinguished from the second (late) phase (15-60 min after formalin injection) (D. Dubuisson, S. G. Dennis, Pain 4, 161-174 (1977)). The early phase, as a direct reaction to the formalin injection, represents a model for acute pain while the late phase is considered as a model for persistent (chronic) pain (T. J. Coderre, J. Katz, A. L. Vaccarino, R. Melzack, Pain, Vol. 52, p. 259,1993).
The compounds according to the invention were investigated in the second phase of the formalin test to obtain information about the effects of substances in chronic/inflammatory pain.
A nociceptive reaction was induced in freely moving experimental animals by a single subcutaneous formalin injection (50 μl, 5%) into the dorsal side of the back right paw, the nociceptive reaction being portrayed by the following behavioral parameters: lifting and holding the respective paw (Score 1), shaking and twitching (Score 2), licking and biting (Score 3). The different behavioral patterns triggered by the formalin injection were recorded continuously by observing the animals in the late phase of the formalin test and were weighted differently in an evaluation. Normal behavior in which the animal loads all four paws uniformly was recorded as score 0. The moment of administration prior to the formalin injection was selected according to the method of administration of the compounds according to the invention (intraperitoneal: 15 min, intravenous: 5 min). The described behavioral patterns (Score 1 to 3) in the animals are reduced and possibly even eliminated after injection of substances which have an antinociceptive effect in the formalin test. A comparisom was made with control animals which had received vehicles (solvents) prior to formalin administration. The nociceptive behavior was calculated as a so-called pain rate (PR). The various behavioral parameters received a different weighting (Factor 0, 1, 2, 3). Calculation took place at partial intervals of 3 min according to the following formula:
Substance and vehicle groups include n=10 animals in each case. The effect of the substance was determined as a percentage change versus control on the basis of the PR calculations. The ED50 calculations were made by regression analysis.

[2] = molecular target: T1, glycine binding site of the NMDA receptor channel (Rattus norvegicus, UniProt P35439); experiment: Receptor binding, displacement of (3H)-MDL 105.519 on rat cerebral membrane homogenates; settings: 10 μmol/l test substance; 1 nmol/l (3H)-MDL 105.519; read-out: Displacement (%, 10 μmol/l) of radioactive ligand from specific binding
T1 construct: from tissue; host or cells: rat brain cortex and hippocampus membrane homogenate
Method: Receptor Binding (Glycine Binding Site of the NMDA Receptor Channel)
Experiments to determine the affinity of the compounds according to the invention of Formula I to the glycine binding site of the NMDA receptor channel were carried out on cerebral membrane homogenates (homogenate of Cortex- and Hippocampus-Areal from the brain of male rats, Wistar strain) (B. M. Baron, B. W. Siegel, B. L. Harrison, R. S. Gross, C. and P. Towers, Journal of Pharmacology and Experimental Therapeutics, Vol. 279, p. 62, 1996).
For this purpose, Cortex and Hippocampus from freshly removed rats' brains were dissected, homogenized in 5 mmol/l TRIS-acetate buffer, 0.32 mol/l sacharose pH 7.4 (10 ml/g fresh weight) with a Potter homogenizer (made by Braun/Melsungen, 10 piston strokes at 500 rpm) while cooling with ice and subsequently centrifuged for 10 minutes at 1,000 g and 4° C. The first supernatant material was collected and the sediment homogenized again with […] TRIS-acetate buffer, 0.32 mol/l safcharose pH 7.4 (5 ml/g original fresh weight) using the Potter homogenizer (10 piston strokes at 500 rpm) while cooling with ice and centrifuged for 10 minutes at 1,000 g and 4° C. The resultant supernatant material was combined with the supernatant material from the first centrifugation and centrifuged at 17,000 g for 20 minutes at 4° C. The supernatant material after this centrifugation was discarded, the membrane sediment taken up with 5 mmol/l TRIS-acetate buffer pH 8.0 (20 ml/g original fresh weight) and homogenized with 10 piston strokes at 500 rpm.
The membrane homogenate was then incubated for 1 hour at 4° C. and centrifuged for 30 minutes at 50,000 g and 4° C. The supernatant material was discarded and the centrifuge tube with the membrane sediment sealed with parafilm and frozen for 24 hours at −20° C. The membrane sediment was thawed on the following day, taken up with ice-cold 5 mmol/l TRIS-acetate buffer, 0.1% saponin (w/v) pH 7.0 (10 ml/g original fresh weight), homogenized with 10 piston strokes at 500 rpm and subsequently centrifuged for 20 minutes at 50,00 g and 4° C. The resultant supernatant material was discarded, the sediment taken up in a small volume with 5 mmol/l TRIS-acetate buffer pH 7.0 (about 2 ml/g original fresh weight) and homogenized again with 10 piston strokes at 500 rpm. After determining the protein content, the membrane homogenate was adjusted to a protein concentration of 10 mg protein/ml using 5 mmol/l TRIS-acetate buffer pH 7.0 and frozen in aliquots for testing.
For the receptor binding test, aliquots were thawed, diluted 1:10 with 5 mmol/l TRIS-acetate buffer pH 7.0, homogenized with 10 piston strokes at 500 rpm using the potter homogenizer (10 piston strokes at 500 rpm) while cooling with ice and centrifuged for 60 minutes at 55,000 g at 4° C. The supernatant material was decanted, the membrane sediment adjusted to a protein concentration of 1 mg/ml with ice-cold 50 mmol/l TRIS-acetate buffer pH 7.0, homogenized again with 10 piston strokes at 500 rpm and kept in suspension in the ice bath while stirring on a magnetic stirrer. 100 μl of this membrane homogenate per 1 ml of feedstock was used in each case in the receptor binding test (0.1 mg protein/ml in the final batch).
In the binding test, 50 mmol/l TRIS-acetate buffer pH 7.0 was used as buffer and 1 nmol/l (^3H)-MDL 105.519 (B. M. Baron et al 1996) was used as radioactive ligand. The proportion of unspecific binding was determined in the presence of 1 mmol/l glycine.
In further batches, the compounds according to the invention were added in concentration series and the displacement of the radioactive ligand from its specific binding to the glycine binding site of the NMDA receptor channel determined. The respective triple batches were incubated for 120 minutes at 4° C. and then harvested to determine the radioactive ligands bound to the membrane homogenate by filtration through glass fiber filter mats (GF/B). […]

| Structure (SMILES) | inhibition at 10 µM [2] | % inhibition of formalin-induced nociception ([1]; i.p.) | % inhibition of formalin-induced nociception ([1]; i.v.) |
| --- | --- | --- | --- |
| CCOC(=O)C1Nc2cc(Cl)cc(Cl)c2C2C=CCC12 (stereo not shown) [Example 1, 7,9-dichloro-3a,4,5,9b-tetrahydro-3H-cyclopenta[c]quinoline-4-carboxylic Acid Ethyl Ester] | – | 88.3% | – |
| O=C(O)C1Nc2ccc(Cl)cc2C2C=CCC12 (stereo not shown) [Example 4, 8-chloro-3a-4,5,9b-tetrahydro-3H-cyclo-penta[c]quinoline-4-carboxylic Acid] | – | – | 67.1% |
| CCOC(=O)C1CC(c2ccccc2F)c2c(Cl)cc(Cl)cc2N1 (stereo not shown) [Example 26, 5,7-dichloro-4-(2-fluorophenyl)-1,2,3,4-tetrahydroquinoline-2-carboxylic Acid Ethyl Ester] | 43% | 82.6% | – |
| CCOC(=O)C1CC(c2ccccc2Cl)c2c(Cl)cc(Cl)cc2N1 (stereo not shown) [Example 33, 5,7-dichloro-4-(2-chlorophenyl)-1,2,3,4-tetrahydroquinoline-2-carboxylic Acid Ethyl Ester] | 40% | 69.0% | – |

The next lines start with results.

| inhibition at 10 µM [2] | Structure (SMILES) | % inhibition of formalin-induced nociception ([1]; i.p.) | % inhibition of formalin-induced nociception ([1]; i.v.) |
| --- | --- | --- | --- |
| 32% | CCOC(=O)C1CC(c2cccc(Cl)c2)c2c(Cl)cc(Cl)cc2N1 (stereo not shown) [Example 34, 5,7-dichloro-4-(3-chlorophenyl)-1,2,3,4-tetrahydroquinoline-2-carboxylic Acid Ethyl Ester] | 53.1% | – |
| 32% | CCOC(=O)C1CC(c2ccc(Cl)cc2)c2c(Cl)cc(Cl)cc2N1 (stereo not shown) [Example 35, 5,7-dichloro-4-(4-chlorophenyl)-1,2,3,4-tetrahydroquinoline-2-carboxylic Acid Ethyl Ester] | 21.9% | – |
